Results from US20080124270A1, “Compounds Useful as Metal Chelators” (BRACCO IMAGING S.P.A., priority 2003, published 2008).

How the values were obtained:
[1] = relaxivity r1 of the gadolinium complex; assay type: physicochemical; conditions: for r1: relaxivity of the compound when complexed with gadolinium
Excerpt: (§1) One measure of a complex of a paramagnetic metal and a chelation compound is its signal enhancing effect when used as a contrast agent for MRI. The effectiveness of a paramagnetic complex (e.g., a complex including Gd (III)) in decreasing the relaxation time (T1) of the vicinal water protons is an intrinsic property called relaxivity, r1, which is given by the following equation: […]

[2] = relaxivity r1 of the gadolinium complex in Sucrose 80; assay type: physicochemical; conditions: relaxivity of the compound when complexed with gadolinium
Excerpt: as §1

| r1 [1] | r1 in Sucrose 80 [2] | relaxivity compared to DOTA or DO3A ([1]; when it complexes gadolinium, result in words) | Structure (SMILES) |
| --- | --- | --- | --- |
| 3.5 mM⁻¹ s⁻¹ | 35 mM⁻¹ s⁻¹ | – | O=C(O)CN1CCN(CC(=O)O)CCN(CC(=O)O)CCN(CC(=O)O)CC1 [DOTA, 1,4,7,10-tetraazacyclododecane-1,4,7,10-tetraacetic acid, reference compound] |
| 4.1 mM⁻¹ s⁻¹ | 65 mM⁻¹ s⁻¹ | surprisingly high relaxivity | O=C(O)CN1CCN(CC(=O)O)CCN(CP(=O)(O)O)CCN(CC(=O)O)CC1 [MPDO3A (Na), 10-Phosphonomethyl-1,4,7,10-tetraazacyclododecane-1,4,7-triacetic acid] |
| 4.1 mM⁻¹ s⁻¹ | 64 mM⁻¹ s⁻¹ | – | CC(N1CCN(CC(=O)O)CCN(CC(=O)O)CCN(CC(=O)O)CC1)P(=O)(O)O (stereo not shown) [EPDO3A (Na), 10-(1-phosphonoethyl)-1,4,7,10-tetrazacycododecane-1,4,7-triacetic acid] |
